Reference: US9296778B2, “3′,5′-cyclic phosphate prodrugs for HCV infection” (Idenix Pharmaceuticals, Inc., priority 2012, dated 2016)

Columns and labels:
[1] = Stability in fresh human whole blood; assay type: in vitro ADME; conditions: 0.5 μM, percent unchanged test compound
Protocol: (§1) Stability of compounds were determined in fresh human whole blood with K2EDTA as the anticoagulant (stored refrigerated at 2-8° C. and used within 7 days of receipt). The experiment was conducted with three replicates for each time point. Whole blood, pre-incubated at 37° C. for 10-15 minutes, was fortified with a solution of test compound for a final concentration of 0.5 μM and mixed for 30 sec. At intervals (0, 0.5, 1 and 2 hr), three 50 μL aliquots were combined with 200 μL (each) of an ice-cold solution of the internal standard (carbutamide 500 ng/mL in acetonitrile). The samples were vortexed for 30 sec and then centrifuged at 16,100 g for 5 min. The supernatant was analyzed by LC-MS/MS. The MS peak area ratio of the test compounds versus the internal standard was calculated and percent unchanged test compound was calculated for each time point using this ratio.

Stability in mouse blood = assay type: in vitro ADME; conditions: on ice, percent unchanged test compound
Protocol: as §1
The stability in mouse blood was determined on ice at 0, 0.5 and 1 hr as herein.

Zluc cells = assay: cytotoxicity evaluation (CellTiter-Blue Cell Viability Assay); conditions: read-out: HCV Replicon CC50; Zluc cells, CellTiter-Blue
HCV genotype 1b replicon = assay: HCV Replicon Assay; assay type: cell-based; conditions: Zluc cells (Huh-7-derived, HCV genotype 1b replicon, luciferase reporter), 72 hours; read-out: HCV Replicon EC50
Protocol: Huh-7-derived cell line (Zluc) that harbors an HCV genotype 1b replicon and a luciferase reporter gene was grown in Dulbecco's Modified Eagle Medium (DMEM) supplemented with 10% fetal bovine serum, 2 mM GlutaMAX, 1% MEM nonessential amino acids, 100 IU/mL penicillin, 100 μg/mL streptomycin, and 0.5 mg/mL Geneticin® (G418). For dose response testing the cells were seeded in 96-well plates at 7.5×10^3 cells per well in a volume of 50 μL, and incubated at 37° C./5% CO2. Drug solutions were made up freshly in Huh-7 media as 2× stocks. Ten additional 5-fold dilutions were prepared from these stocks in DMEM without G418. At least three hours after Zluc cells were seeded, drug treatment was initiated by adding 50 μL of drug dilutions to the plates in duplicate. Final concentrations of drug ranged from 100 μM to […]. Cells were then incubated at 37° C./5% CO2. Alternatively, compounds were tested at two concentrations (1 μM and 10 μM). […] For this, media was removed from the plates via gentle tapping. Fifty microliters of ONE-glo luciferase assay reagent was added to each well. The plates were shaken gently for 3 min at room temperature and luminescence was measured on a Victor^3 V 1420 multilabel counter (Perkin Elmer) with a 1 second read time using a 700 nm cut-off filter. The EC50 values were calculated from dose response curves from the resulting best-fit equations determined by Microsoft Excel and XLfit 4.1 software. When screening at two fixed concentrations, the results were expressed as % inhibition at 1 μM and 10 μM.

[2] = Stability in simulated intestinal fluid; assay type: in vitro ADME; conditions: 100 μM, 2 hours at 37° C., percent of the peak area at time zero
Protocol: Simulated gastric and intestinal fluids containing pepsin and pancreatin respectively were prepared according to the U.S. Pharmacopoeia USP291 procedure (www.pharmacopeia.cn/v29240/usp29nf24s0_ris1s126.html). Compounds (final concentration 100 μM) were incubated in duplicate in the appropriate fluid for 2 hours at 37° C. The samples were quenched with 200 μl cold acetonitrile, vortexed for 30 seconds and then centrifuged at 16,100 g for 10 min. The supernatants were analyzed by HPLC on a C-18 column with UV detection at 252 nm. The time 0 samples were prepared by adding SGF or SIF fluid to the quenching solvent followed by the test compound. Stability of the compounds was determined by peak area of the test compounds after incubation and calculated as percent of the peak area observed at time zero.

[3] = Liver pharmacokinetics following a single oral dose in CD-1 mice; assay type: in vivo; conditions: single oral dose 25 mg/kg in PEG 200, CD-1 male mice, given at 1 μmol/kg
Protocol: (§2) A single oral dose of test compound at 25 mg/kg in PEG 200 (dose volume 5 mL/kg) was administered to nine CD-1 male mice. Five untreated animals were used for the collection of control plasma and liver. Terminal plasma and liver samples were collected from three animals per time point at 4, 12 and 24 hours post dose. Liver specimens were collected from all animals immediately after the incision. Freezing forceps stored in liquid nitrogen were used to freeze the liver before excision.
Liver samples were analyzed for the active species 2′-methylguanosine triphosphate (2′-MeGTP) by LC-MS/MS. 2′-MeGTP levels were assayed by homogenizing (on ice) a known weight of mouse liver with 4× volume of 0.95 M trichloroacetic acid (TCA). Internal standard solution was added to the homogenate followed by neutralization with 20% ammonium hydroxide solution and addition of 500 μL 1% formic acid. The tissue samples were extracted by weak anion exchange solid phase extraction (SPE). Post extraction, the eluates were evaporated under nitrogen, followed by reconstitution before injection onto the LC-MS/MS system. The samples were chromatographed on a Luna NH2 column using a gradient system of ammonium acetate (1 mM to 20 mM and pH 8.0 to pH 10.0) in water and acetonitrile (70:30). The analyte was detected and quantified by tandem mass spectrometry in positive ion mode on an API4000 equipped with a Turbo Ionspray® interface. The calibration range was 10 to 10000 pmol/mL in mouse liver homogenate (50 to 50000 pmol/g of mouse liver).

[4] = Plasma pharmacokinetics following a single oral dose in CD-1 mice; assay type: in vivo; conditions: single oral dose 25 mg/kg in PEG 200, CD-1 male mice, given at 1 μmol/kg
Protocol: as §2
Plasma samples were analyzed for 2′-methylguanosine (2′-MeG) by LC-MS/MS. The internal standard (IS) was 2′-MeG-D3. For protein precipitation and extraction, each plasma sample (50 μL) was treated with 500 μL of 0.2% formic acid in acetonitrile and 20 μL of the internal standard working solution. After vortexing and centrifugation, 500 μL of the sample extracts were transferred to a new plate, dried under N2 at ˜28° C. and reconstituted with 75 μL of 0.2% FA in water. The extracts were chromatographed on an Aquasil C18 column using a gradient system of 0.2% formic acid in water and acetonitrile. The analytes were detected and quantified by tandem mass spectrometry in positive ion mode on an MDS Sciex API5000 equipped with a Turbo Ionspray® interface. The calibration range was 0.500 (LLOQ) to 200 ng/mL in mouse plasma.

mouse hepatocytes = assay: Release of active metabolite in mouse hepatocytes; assay type: in vitro ADME; conditions: 10 μM compound; for MsH AUC: mouse hepatocytes, 1, 4, 8, 12 and 24 hours
Protocol: (§3) Plates of fresh human and mouse hepatocytes were obtained on ice. The medium was removed and replaced with hepatocyte culture medium (William's E supplemented with penicillin-streptomycin, 1% L-glutamine, 1% insulin-transferrin-selenium and 0.1 μM Dexamethasone (Invitrogen) or with Invitro GRO HI medium complemented with Torpedo antibiotics (Celsis)). Cells were left overnight in an incubator at 37° C. to acclimatize to culture and the medium.
(§4) Hepatocyte incubations were conducted at a final volume of 0.5 mL hepatocyte culture medium/well (0.8 million cells/well for human and 0.5 million cells/well for mouse; 12 well plate no overlay, collagen coat). Culture medium from overnight incubation of cells was removed and replaced with fresh medium, pre-warmed to 37° C., containing 10 μM of test compound from a stock solution in DMSO (final DMSO concentration was 0.1%). At each specific time point, incubation medium was removed and cell monolayers were carefully washed two times with ice-cold PBS. Following the last wash, all PBS was carefully removed and 1.0 mL of extraction solution (ice-cold 70% methanol/30% water) added. Cells were scraped off and suspended in the extraction solution, transferred to 2 mL polypropylene microfuge tubes and intracellular contents extracted overnight at −20° C.
(§5) After the overnight treatment the cellular extracts were prepared by centrifugation at 16,000×g for 10 min to remove cellular debris. The remaining sample was then dried using a refrigerated centrivap concentrator. Dry extracts were reconstituted in 1000 μL of HPLC-grade water and centrifuged at 16,000×g for 10 min. Aliquots (100 μL each) of the supernatant were transferred into a 96 well plate and internal standard (4 ng/mL final concentration) was added as the internal standard (IS) for LC-MS/MS analysis.
(§6) The incubation time points were 6, 24 and 48 hours for human hepatocytes and 1, 4, 8, 12 and 24 hours for mouse hepatocytes.

fresh human hepatocytes = assay: Release of active metabolite in fresh human hepatocytes; assay type: in vitro ADME; conditions: 10 μM compound; for FHH TP Cmax: fresh human hepatocytes; for FHH TP AUC: fresh human hepatocytes, 6, 24 and 48 hours
Protocol: as §3, §4, §5, §6

| SMILES | Stability WB_Human (37° C.; 2 hr) [1] [%] | Stability WB_Mouse (ice; 1 hr) (Stability in mouse blood) [%] | CC50 (Zluc cells) [µM] | EC50 (HCV genotype 1b replicon) [µM] | Stability SIF [2] [%] | Ms Liver 2′-MeGTP AUC ([3]; 25 mg/kg) [pmol · hr/g at 1 μmol/kg] | Ms Plasma 2′-MeG AUC ([4]; 25 mg/kg) [pmol · hr/mL at 1 μmol/kg] | Ms Plasma 2′-MeG Cmax ([4]; 25 mg/kg) [pmol/mL at 1 μmol/kg] | MsH AUC (mouse hepatocytes) | FHH TP Cmax (fresh human hepatocytes) | FHH TP AUC (fresh human hepatocytes) | Ms Liver 2′-MeGTP AUC [3] [pmol · hr/g at 1 μmol/kg] | Ms Plasma 2′-MeG AUC [4] [pmol · hr/mL at 1 μmol/kg] | Ms Plasma 2′-MeG Cmax [4] [pmol/mL at 1 μmol/kg] | MsH Cmax (mouse hepatocytes; mouse hepatocytes) [pmol/mill cells] |
| --- | --- | --- | --- | --- | --- | --- | --- | --- | --- | --- | --- | --- | --- | --- | --- |
| CCOc1nc(N)nc2c1ncn2[C@@H]1O[C@@H]2COP(=O)(OCCCC(=O)OC(C)C)O[C@H]2[C@@]1(C)F (single isomer, unassigned; diastereomer 1) [Compound 3 Diastereomer 1] | 20.5 | 14 | < 50 | < 0.25 | 92 | – | – | – | – | – | – | – | – | – | – |
| CC(C)OC(=O)CCCOP1(=O)OC[C@H]2O[C@@H](n3cnc4c(=O)[nH]c(N)nc43)[C@](C)(F)[C@@H]2O1 (single isomer, unassigned; diastereomer 1) [Compound 6 Diastereomer 1] | – | – | > 50 | 1 to 10 | – | 35 | 13 | 1.3 | BLD^a | – | – | – | – | – | – |
| CCOC(=O)CCOP1(=O)OC[C@H]2O[C@@H](n3cnc4c(OCC)nc(N)nc43)[C@](C)(F)[C@@H]2O1 (single isomer, unassigned; diastereomer 1) [Compound 8 Diastereomer 1] | 89 | – | > 50 | < 0.25 | 96 | – | – | – | – | BLD^a | BLD^a | – | – | – | – |
| CCOc1nc(N)nc2c1ncn2C1OC2COP(=O)(OCC(NC(=O)OC)C(=O)OC(C)C)OC2C1(C)O (single isomer, unassigned; diastereomer 1) [Compound 14 Diastereomer 1] | 62 | – | < 50 | < 0.25 | 88 | – | – | – | – | 19 pmol/mill cells | 224 pmol · hr/mill cells | – | – | – | – |
| CCOc1nc(N)nc2c1ncn2[C@@H]1O[C@@H]2COP(=O)(OCCC(=O)OC(C)C)O[C@H]2[C@@]1(C)F (single isomer, unassigned; diastereomer 1) [Compound 21 Diastereomer 1] | 86 | – | – | – | 91 | – | – | – | BLD^a | BLD^a | BLD^a | – | – | – | – |
| CCOc1nc(N)nc2c1ncn2[C@@H]1O[C@@H]2COP(=O)(OCCCC(=O)OC(C)C)O[C@H]2[C@@]1(C)F (single isomer, unassigned; diastereomer 2) [Compound 3 Diastereomer 2] | – | – | – | – | – | – | – | – | 3265 pmol · hr/mill cells | 146 pmol/mill cells | 4574 pmol · hr/mill cells | 3200 | 160 | 17 | 91 |
| CC(C)OC(=O)CCCOP1(=O)OC[C@H]2O[C@@H](n3cnc4c(=O)[nH]c(N)nc43)[C@](C)(F)[C@@H]2O1 (single isomer, unassigned; diastereomer 2) [Compound 6 Diastereomer 2] | – | – | > 50 | < 0.25 | – | 530 | 54 | 7.2 | BLD^a | – | – | – | – | – | – |
| CCOC(=O)CCOP1(=O)OC[C@H]2O[C@@H](n3cnc4c(OCC)nc(N)nc43)[C@](C)(F)[C@@H]2O1 (single isomer, unassigned; diastereomer 2) [Compound 8 Diastereomer 2] | 34 | – | > 50 | < 0.25 | 94 | – | – | – | – | BLD^a | BLD^a | – | – | – | – |
| CCOc1nc(N)nc2c1ncn2C1OC2COP(=O)(Oc3ccc(CC(NC(=O)OC)C(=O)OC(C)C)cc3)OC2C1(C)F (single isomer, unassigned; diastereomer 2) [Compound 13 Diastereomer 2] | 70 | 1 | > 50 | < 0.25 | 72 | – | – | – | – | 34 pmol/mill cells | 812 pmol · hr/mill cells | – | – | – | – |
| CCOc1nc(N)nc2c1ncn2[C@@H]1O[C@@H]2COP(=O)(OCCC(=O)OC(C)C)O[C@H]2[C@@]1(C)O (single isomer, unassigned; diastereomer 2) [Compound 22 Diastereomer 2] | 88 | – | > 50 | < 0.25 | 101 | – | – | – | BLD^a | 28 pmol/mill cells | 742 pmol · hr/mill cells | – | – | – | – |
